Assay results as given in article PMC3437750 (Journal of medicinal chemistry, 2011).

Assays:
[1] = tested on: Hela cells
[2] = target: T1, purified human PMI (Homo sapiens, UniProt P34949); assay type: biochemical
T1 sequence (P34949 1-423): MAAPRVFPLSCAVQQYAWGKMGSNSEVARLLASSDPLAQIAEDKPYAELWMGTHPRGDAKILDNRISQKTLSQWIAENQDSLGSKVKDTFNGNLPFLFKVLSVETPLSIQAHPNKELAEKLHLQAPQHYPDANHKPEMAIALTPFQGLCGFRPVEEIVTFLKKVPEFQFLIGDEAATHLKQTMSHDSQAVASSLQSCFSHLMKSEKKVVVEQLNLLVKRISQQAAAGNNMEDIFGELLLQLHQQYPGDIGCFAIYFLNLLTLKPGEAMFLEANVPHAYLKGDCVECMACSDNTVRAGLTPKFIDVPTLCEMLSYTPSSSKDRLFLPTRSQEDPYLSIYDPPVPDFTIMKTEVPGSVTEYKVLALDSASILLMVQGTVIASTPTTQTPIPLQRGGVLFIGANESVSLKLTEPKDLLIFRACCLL

[3] = target: T2, purified human PMM2 (Homo sapiens, UniProt O15305); test: PMM2 in vitro enzymatic concentration-response assay; assay type: biochemical; details: tested up to 20 µM where stated
T2 sequence (O15305 1-246): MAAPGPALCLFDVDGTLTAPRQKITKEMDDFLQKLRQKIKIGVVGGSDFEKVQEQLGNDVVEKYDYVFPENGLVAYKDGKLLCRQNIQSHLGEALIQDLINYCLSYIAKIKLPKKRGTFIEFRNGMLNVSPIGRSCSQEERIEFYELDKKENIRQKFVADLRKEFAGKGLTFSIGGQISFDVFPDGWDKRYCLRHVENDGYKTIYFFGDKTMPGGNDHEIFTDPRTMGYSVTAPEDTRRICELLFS

[4] = Glutathione conjugation assay; details: 10 µM, 2 mg/mL rat hepatic S9, 10 mM glutathione, 37°C, 2 hours
[5] = Parallel Artificial Membrane Permeation Assay; assay type: in vitro ADME; details: assessed in vitro, PAMPA

| SMILES | PMM2 inhibition (in words) [3] | GSH adduct formation by LCMS (in words) [4] | further results |
| --- | --- | --- | --- |
| O=c1c2ccccc2sn1-c1ccc(C(F)(F)F)cc1 [Compound 6, 2-[4-(Trifluoromethyl)phenyl]-2-hydrobenzo[d]isothiazol-3-one] | inactive against both enzymes |  | cellular toxicity (35S-Met/Cys incorporation, in words) [1]: exhibits cellular toxicity; PMI inhibition (in words) [2]: inactive against both enzymes |
| Cc1ccc(C)c(-n2sc3ccccc3c2=O)c1 [Compound 16, 2-(2,5-dimethylphenyl) benzo[d]isothiazol-3(2H)-one] | a measurable inhibition of PMM2 was observed |  |  |
| O=C(O)Cc1ccccc1Nc1c(Cl)cccc1Cl [diclofenac, reference compound] |  | showed the expected conjugate masses |  |
| O=c1c2cc(F)ccc2sn1-c1ccccc1 [Compound 19, 5-Fluoro-2-phenylbenzo[d]isothiazol-3(2H)-one] |  | no GSH adducts were observed | predicted permeability (in words) [5]: moderately permeable |
| O=c1c2ccccc2sn1-c1ccccc1 [Compound 1, 2-Phenyl-2-hydrobenzo[d]isothiazol-3-one] | selective for PMI over PMM2 |  |  |
